Patent US20040006004A1, “Method for prevention and treatment of diseases or disorders related to excessive formation of vascular tissue or blood vessels” (priority 2002, published 2004)

Tested on: NPY Y2 receptor
Assay: Hyperoxia/ischemia-induced retinal neovascularization (retinopathy) in newborn rats, fluorescent dextran flat-mount vessel count
Assay type: in vivo, rat (Sprague Dawley)
Details: for Retinal capillary vessel formation in fluorescein images: fluorescence microscopy of flat-mounted retinas, FIG. 3; for Quantitated neovascularization (amount of retinal vessels crossed by a constant length line), Mean ± SD / Quantitated neovascularization, Range: newborn rats, intraperitoneal treatment, retinas at age of 20 days; for Quantitated neovascularization (amount of retinal vessels crossed by a constant length line), Mean ± SD: cyclic hyperoxia 40%/80%; for Quantitated neovascularization, Range: cyclic hyperoxia; for Development of retinopathy: treated groups of rat puppies
Source text: The present study was undertaken to determine the impact of NPY Y2 receptor targeted intervention on neovascularization and development of retinopathy. Development of retinopathy was induced to newborn rats by cyclic hyperoxia and following relative ischemia-induced retinal neovascularization. Hyperoxemia is toxic to developing retinal vessels causing damage and hypoxia in the retina. After moving to normal air, relative hypoxia follows further promoting neovascularization of the retina.
Three groups of rat puppies were subjected for different treatments; 1) vehicle, 2) NPY Y2 receptor targeted antisense oligonucleotide sequence, and 3) scramble oligonucleotide sequence containing the same oligonucleotides as NPY Y2 receptor targeted antisense oligonucleotide sequence. The treatments were administered intraperitoneally. The retinal vessels were investigated and retinopathic changes were compared between treatment groups.
Retinopathy was assessed after injection of fluorescent-labelled dextran to the circulation. The eyes were flat-mounted on slides and the retinal vessels were visualized and investigated by fluorescence microscopy. Statistical differences were calculated between the study groups.
Study protocol was approved by the Joint Ethics Committee of Turku University. Development of retinopathy was induced to newborn rats (Sprague Dawley) by cyclic hyperoxia and following relative ischemia. Hyperoxia is toxic to developing retinal vessels causing damage and hypoxia in the retina, which induces neovascularization. After moving to normal air, relative hypoxia follows further promoting neovascularization of the retina. Hypoxia is one of the major causes of retinal neovascularization in human retinopathies also. The newborn rats were kept in a hyperoxic incubator with their mothers. Retinal neovascularization was induced simultaneously for all three groups of puppies. One treatment group consisted originally of 7 puppies, which underwent cyclic hyperoxia at the age of 3 days, continued until at the age of 14 days and remained in normal room air from the age of 14 to 17 days. The amount of oxygen inside the incubator was kept at 40% and 80% in 12 hour cycles for 10 days (days from 3 to 13).
The three groups of puppies were subjected for different treatments; 1) plain vehicle, 2) NPY Y2 receptor targeted antisense oligodeoxynucleotide sequence (5′-CCTCTGCACCTAATGGGCCC-3′ (SEQ ID NO:4), containing 20 thioate modified bases) diluted in vehicle and 3) scramble oligodeoxynucleotide sequence containing the same deoxynucleotides as NPY Y2 receptor targeted antisense oligodeoxynucleotide sequence but in a random order (5′-CCATGGTAATCCGCCGCTCC-3′ (SEQ ID NO:5), containing 20 thioate modified bases) diluted in vehicle. The treatments were administered intraperitoneally. The retinal vessels were investigated and retinopathic changes were compared between treatment groups. The used NPY Y2 receptor targeted antisense deoxynucleotide sequence was designed complementary to next 20 bases from NPY Y2 gene transcription initiation codon (ATG).
At the age of 20 days, rats were decapitated and eyes were collected. Retinopathy and retinal neovascularization was assessed after an injection of fluorescent-labelled dextran to the circulation trough heart puncture. One eye from each puppy was used for visualization of retinal vessels. The eyes were flat-mounted on slides and the retinal vessels were visualized and investigated by fluorescence microscopy. Pictures of retinas were acquired using a Leica DMR/DC 100 microscope and Leica DC Wiever software.
The amount of retinal capillaries was analyzed by counting the amount of vessels crossed by a constant length line using plot profile analysis (Image-J 2.6 program). Each retina was analyzed in 3-5 representative areas and the mean values were used for further statistical analysis. Only unfolded retinal preparations were used in order to avoid artificial images of neovascularization. […]

[1] = post hoc analysis, less neovascularization

Row | Substance | Retinal capillary vessel formation in fluorescein images | Quantitated neovascularization (amount of retinal vessels crossed by a constant length line), Mean ± SD | Quantitated neovascularization, Range | Difference in retinal neovascularization versus vehicle treatment group (post hoc analysis) | Development of retinopathy | 95% confidence interval for the difference compared to scramble treatment group (post hoc analysis) | 95% confidence interval for the difference compared to vehicle treatment group (post hoc analysis) | Mean difference in neovascularization compared to scramble treatment group [1] | Mean difference in neovascularization compared to vehicle treatment group [1]
1 | 5′-CCATGGTAATCCGCCGCTCC-3′ (CCATGGTAATCCGCCGCTCC; DNA, all phosphorothioate, methylation of C not given here) [Scramble, reference compound] | irregular and disrupted | 31.12 ± 0.93 | 30.33-32.25 | no difference | evident |  |  |  | 
2 | 5′-CCTCTGCACCTAATGGGCCC-3′ (antisense CCTCTGCACCTAATGGGCCC; DNA, all phosphorothioate, methylation of C not given here) [Y2-antisense, NPY Y2 receptor targeted antisense oligodeoxynucleotide, complementary to rat NPY Y2 mRNA, next 20 bases from initiation codon] | regular and continuous | 24.58 ± 0.84 | 23.75-25.75 |  | prevented | 3.76-9.31 | 2.48-8.33 | 6.53 | 5.40
